Reference: PubChem BioAssay (NCI)
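Interpolation was linear, between the two tested concentrations surrounding the appropriate level; five concentrations were tested over 48 hours in 96-well plates. GI50 marks 50% less growth. Definition used: TGI = concentration required for complete inhibition of growth.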

Key:
Experiment in all cases: NCI anticancer screen, dose series, 48 h
NCI/ADR-RES ovarian = tested on: NCI/ADR-RES ovarian
T-47D breast = tested on: T-47D breast
LOX IMVI melanoma = tested on: LOX IMVI melanoma
TK-10 renal = tested on: TK-10 renal
786-0 renal = tested on: 786-0 renal
CCRF-CEM leukemia = tested on: CCRF-CEM leukemia
UACC-62 melanoma = tested on: UACC-62 melanoma
U251 CNS = tested on: U251 CNS
PC-3 prostate = tested on: PC-3 prostate
UO-31 renal = tested on: UO-31 renal
NCI-H522 lung = tested on: NCI-H522 lung
DU-145 prostate = tested on: DU-145 prostate
MOLT-4 leukemia = tested on: MOLT-4 leukemia
SW-620 colon = tested on: SW-620 colon
MCF7 breast = tested on: MCF7 breast
SF-539 CNS = tested on: SF-539 CNS
KM12 colon = tested on: KM12 colon
ACHN renal = tested on: ACHN renal
MDA-MB-435 = tested on: MDA-MB-435
HOP-62 NSCLC = tested on: HOP-62 NSCLC
NCI-H460 lung = tested on: NCI-H460 lung
HCT-15 colon = tested on: HCT-15 colon
NCI-H226 lung = tested on: NCI-H226 lung
SF-268 CNS = tested on: SF-268 CNS
OVCAR-4 ovarian = tested on: OVCAR-4 ovarian
NCI-H23 lung = tested on: NCI-H23 lung
SR leukemia = tested on: SR leukemia
RXF 393 renal = tested on: RXF 393 renal
CAKI-1 renal = tested on: CAKI-1 renal
SK-MEL-2 melanoma = tested on: SK-MEL-2 melanoma
SK-MEL-5 melanoma = tested on: SK-MEL-5 melanoma
A498 renal = tested on: A498 renal
MALME-3M melanoma = tested on: MALME-3M melanoma
SNB-75 CNS = tested on: SNB-75 CNS
OVCAR-5 ovarian = tested on: OVCAR-5 ovarian
K-562 leukemia = tested on: K-562 leukemia
SN12C renal = tested on: SN12C renal
HCC-2998 colon = tested on: HCC-2998 colon
MDA-MB-231 breast = tested on: MDA-MB-231 breast
EKVX NSCLC = tested on: EKVX NSCLC
OVCAR-3 ovarian = tested on: OVCAR-3 ovarian
HOP-92 NSCLC = tested on: HOP-92 NSCLC
IGROV1 ovarian = tested on: IGROV1 ovarian
HT29 colon = tested on: HT29 colon
SK-OV-3 ovarian = tested on: SK-OV-3 ovarian
A549 NSCLC = tested on: A549 NSCLC
SNB-19 CNS = tested on: SNB-19 CNS
HL-60(TB) leukemia = tested on: HL-60(TB) leukemia
OVCAR-8 ovarian = tested on: OVCAR-8 ovarian
BT-549 breast = tested on: BT-549 breast
HS 578T breast = tested on: HS 578T breast
COLO 205 colon = tested on: COLO 205 colon
UACC-257 melanoma = tested on: UACC-257 melanoma
SK-MEL-28 melanoma = tested on: SK-MEL-28 melanoma
RPMI-8226 leukemia = tested on: RPMI-8226 leukemia
SF-295 CNS = tested on: SF-295 CNS

SMILES: Cc1cc(Cl)ccc1Nc1nc(C(F)(F)F)ccc1C(=O)Nc1cccc(C(F)(F)F)c1
- GI50 (NCI/ADR-RES ovarian): 3.38 µM
- TGI (NCI/ADR-RES ovarian): 14.7 µM
- GI50 (T-47D breast): 4.53 µM
- TGI (T-47D breast): 23.8 µM
- GI50 (LOX IMVI melanoma): 2.79 µM
- TGI (LOX IMVI melanoma): 8.55 µM
- GI50 (TK-10 renal): 4.4 µM
- TGI (TK-10 renal): 21 µM
- GI50 (786-0 renal): 3.61 µM
- TGI (786-0 renal): 12.9 µM
- GI50 (CCRF-CEM leukemia): 3.41 µM
- TGI (CCRF-CEM leukemia): 14.7 µM
- GI50 (UACC-62 melanoma): 4 µM
- TGI (UACC-62 melanoma): 14.4 µM
- GI50 (U251 CNS): 3 µM
- TGI (U251 CNS): 9.72 µM
- GI50 (PC-3 prostate): 3.63 µM
- TGI (PC-3 prostate): 15.5 µM
- GI50 (UO-31 renal): 3.71 µM
- TGI (UO-31 renal): 16 µM
- GI50 (NCI-H522 lung): 3.47 µM
- TGI (NCI-H522 lung): 13.4 µM
- GI50 (DU-145 prostate): 3.17 µM
- TGI (DU-145 prostate): 15.6 µM
- GI50 (MOLT-4 leukemia): 3.04 µM
- TGI (MOLT-4 leukemia): 13.3 µM
- GI50 (SW-620 colon): 4.23 µM
- TGI (SW-620 colon): 16.6 µM
- GI50 (MCF7 breast): 2.28 µM
- TGI (MCF7 breast): 7.71 µM
- GI50 (SF-539 CNS): 3.27 µM
- TGI (SF-539 CNS): 14.7 µM
- GI50 (KM12 colon): 2.1 µM
- TGI (KM12 colon): 12.1 µM
- GI50 (ACHN renal): 2.75 µM
- TGI (ACHN renal): 9.01 µM
- GI50 (MDA-MB-435): 3.76 µM
- TGI (MDA-MB-435): 16.1 µM
- GI50 (HOP-62 NSCLC): 2.6 µM
- TGI (HOP-62 NSCLC): 11.9 µM
- GI50 (NCI-H460 lung): 3.07 µM
- TGI (NCI-H460 lung): 10.6 µM
- GI50 (HCT-15 colon): 2.56 µM
- TGI (HCT-15 colon): 7.35 µM
- GI50 (NCI-H226 lung): 4.05 µM
- TGI (NCI-H226 lung): 17.6 µM
- GI50 (SF-268 CNS): 4.22 µM
- TGI (SF-268 CNS): 16.6 µM
- GI50 (OVCAR-4 ovarian): 3.07 µM
- TGI (OVCAR-4 ovarian): 11.3 µM
- GI50 (NCI-H23 lung): 2.85 µM
- TGI (NCI-H23 lung): 11.1 µM
- GI50 (SR leukemia): 2.56 µM
- TGI (SR leukemia): 8.28 µM
- GI50 (RXF 393 renal): 3.58 µM
- TGI (RXF 393 renal): 27.5 µM
- GI50 (CAKI-1 renal): 3.61 µM
- TGI (CAKI-1 renal): 17.8 µM
- GI50 (SK-MEL-2 melanoma): 3.23 µM
- TGI (SK-MEL-2 melanoma): 13.3 µM
- GI50 (SK-MEL-5 melanoma): 2.79 µM
- TGI (SK-MEL-5 melanoma): 9.34 µM
- GI50 (A498 renal): 2.79 µM
- TGI (A498 renal): 7.43 µM
- GI50 (MALME-3M melanoma): 1.97 µM
- TGI (MALME-3M melanoma): 9.17 µM
- GI50 (SNB-75 CNS): 3.41 µM
- TGI (SNB-75 CNS): 11.5 µM
- GI50 (OVCAR-5 ovarian): 4.75 µM
- TGI (OVCAR-5 ovarian): 19.3 µM
- GI50 (K-562 leukemia): 2.59 µM
- TGI (K-562 leukemia): 11.2 µM
- GI50 (SN12C renal): 3.23 µM
- TGI (SN12C renal): 11.6 µM
- GI50 (HCC-2998 colon): 3.3 µM
- TGI (HCC-2998 colon): 15.7 µM
- GI50 (MDA-MB-231 breast): 2.03 µM
- TGI (MDA-MB-231 breast): 8.15 µM
- GI50 (EKVX NSCLC): 1.85 µM
- TGI (EKVX NSCLC): 11.1 µM
- GI50 (OVCAR-3 ovarian): 3.52 µM
- TGI (OVCAR-3 ovarian): 19.1 µM
- GI50 (HOP-92 NSCLC): 2.21 µM
- TGI (HOP-92 NSCLC): 8.16 µM
- GI50 (IGROV1 ovarian): 3.88 µM
- TGI (IGROV1 ovarian): 22.7 µM
- GI50 (HT29 colon): 3.07 µM
- TGI (HT29 colon): 10.8 µM
- GI50 (SK-OV-3 ovarian): 2.44 µM
- TGI (SK-OV-3 ovarian): 10.8 µM
- GI50 (A549 NSCLC): 3.4 µM
- TGI (A549 NSCLC): 18 µM
- GI50 (SNB-19 CNS): 4.45 µM
- TGI (SNB-19 CNS): 15.8 µM
- GI50 (HL-60(TB) leukemia): 2.06 µM
- TGI (HL-60(TB) leukemia): 4.67 µM
- GI50 (OVCAR-8 ovarian): 4.32 µM
- TGI (OVCAR-8 ovarian): 22.7 µM
- GI50 (BT-549 breast): 3.76 µM
- TGI (BT-549 breast): 15.7 µM
- GI50 (HS 578T breast): 3.95 µM
- TGI (HS 578T breast): 20.2 µM
- GI50 (COLO 205 colon): 2.52 µM
- TGI (COLO 205 colon): 6.13 µM
- GI50 (UACC-257 melanoma): 3.2 µM
- TGI (UACC-257 melanoma): 11.6 µM
- GI50 (SK-MEL-28 melanoma): 4.79 µM
- TGI (SK-MEL-28 melanoma): 16.6 µM
- GI50 (RPMI-8226 leukemia): 2.73 µM
- TGI (RPMI-8226 leukemia): 12 µM
- GI50 (SF-295 CNS): 3.24 µM
- TGI (SF-295 CNS): 13.3 µM
